Assays:
CSK protein = CSK protein (Homo sapiens (Human), UniProt P41240); test: CSK Inhibition Assay; format: biochemical
How it was run: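 Compounds, 11-point 1:3 dilutions in DMSO, were preincubated 30 min at RT with CSK and fluorescent peptide substrate, then the reaction was started with ATP (4 μM solution) and run 90 min at 25 °C before EDTA stop. Phospho-peptide conversion was read by mobility-shift separation (Caliper EZ Reader II) and converted to % inhibition for IC50.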

LCK protein = LCK protein (Homo sapiens (Human), UniProt P06239); test: LCK Inhibition Assay; format: biochemical
Chain of LCK protein (P06239 whole entry): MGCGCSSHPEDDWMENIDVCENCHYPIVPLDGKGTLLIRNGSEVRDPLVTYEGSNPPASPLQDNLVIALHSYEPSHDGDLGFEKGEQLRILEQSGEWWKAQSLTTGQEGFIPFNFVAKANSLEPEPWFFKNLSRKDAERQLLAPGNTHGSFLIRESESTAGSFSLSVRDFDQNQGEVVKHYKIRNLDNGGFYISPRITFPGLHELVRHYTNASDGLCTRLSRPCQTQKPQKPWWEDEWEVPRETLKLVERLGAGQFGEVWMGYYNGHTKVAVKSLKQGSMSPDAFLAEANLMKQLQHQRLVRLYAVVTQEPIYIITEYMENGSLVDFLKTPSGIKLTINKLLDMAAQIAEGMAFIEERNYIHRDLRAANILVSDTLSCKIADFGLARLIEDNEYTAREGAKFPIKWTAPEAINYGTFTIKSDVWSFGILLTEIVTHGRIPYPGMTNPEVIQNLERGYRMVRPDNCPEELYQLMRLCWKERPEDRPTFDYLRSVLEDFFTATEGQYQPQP
How it was run: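 Recombinant LCK (0.50 nM) preincubated 30 min at RT with compound and FLPeptide4 (2 μM) in 50 mM HEPES pH 7.5, 10 mM MgCl2, Brij-35, DTT, BSA; reaction started with ATP (400 μM solution added), run 90 min at 25 °C, EDTA-stopped. Phospho/non-phospho peptide separated by mobility shift; IC50 from % inhibition of conversion, 11-point 1:3 series.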

Structure (SMILES)	IC50 (CSK protein) [nM]	IC50 (LCK protein) [nM]
Nc1nccc(-c2sc(-c3ccccc3)nc2-c2cccc(NS(=O)(=O)c3c(F)cccc3F)c2F)n1 [compound 2]	43.3	> 1000
O=S(=O)(Nc1cccc(-c2nc(-c3ccccc3)sc2-c2ccnc(Nc3ccc(N4CCOCC4)nc3)n2)c1F)c1c(F)cccc1F [compound 3]	13.4	< 100
Nc1ncc(-c2nc(-c3cccc(NS(=O)(=O)c4c(F)cccc4F)c3F)c(-c3ccnc(N)n3)s2)cn1 [compound 6]	19.8	100 to 1000
CCOc1ncc(-c2nc(-c3cccc(NS(=O)(=O)c4c(F)cccc4F)c3F)c(-c3ccnc(N)n3)s2)cn1 [compound 7]	306	> 1000
Nc1nccc(-c2sc(-c3ccccc3)nc2-c2cncc(NS(=O)(=O)c3c(F)cccc3F)c2)n1 [compound 25]	237	> 1000
COc1ccc(-c2nc(-c3cccc(NS(=O)(=O)c4c(F)cccc4F)c3F)c(-c3ccnc(N)n3)s2)cn1 [compound 27]	26.9	100 to 1000
Nc1nccc(-c2sc(-c3ccc(=O)[nH]c3)nc2-c2cccc(NS(=O)(=O)c3c(F)cccc3F)c2F)n1 [compound 28]	63.3	> 1000
CNc1nccc(-c2sc(-c3ccc(F)cn3)nc2-c2cccc(NS(=O)(=O)c3c(F)cccc3F)c2F)n1 [compound 34]	42.9	> 1000
Cc1ccc(F)c(S(=O)(=O)Nc2cccc(-c3nc(-c4ccccc4)sc3-c3ccnc(N)n3)c2F)c1F [compound 36]	22.3	> 1000

The remaining lines, values ahead:

IC50 (CSK protein) [nM]	IC50 (LCK protein) [nM]	Structure (SMILES)
14.9	100 to 1000	O=S(=O)(Nc1cccc(-c2nc(-c3ccccc3)sc2-c2ccnc(Nc3cncnc3)n2)c1F)c1c(F)cccc1F [compound 38]
33.9	> 1000	Nc1nccc(-c2sc(-c3cnccn3)nc2-c2cccc(NS(=O)(=O)c3c(F)cccc3F)c2F)n1 [compound 39]
41.3	> 1000	CNC(=O)N[C@@H](C)CNc1nccc(-c2sc(-c3ccccc3)nc2-c2cccc(NS(=O)(=O)c3c(F)cccc3F)c2F)n1 [compound 45]
75.8	> 1000	Nc1nccc(-c2sc(-c3cncc(C4CC4)c3)nc2-c2cccc(NS(=O)(=O)c3c(F)cccc3F)c2F)n1 [compound 48]
76.3	> 1000	COc1ccc(F)c(S(=O)(=O)Nc2cccc(-c3nc(-c4cncc(F)c4)sc3-c3ccnc(N)n3)c2F)c1F [compound 50]
77	> 1000	Nc1nccc(-c2c(-c3cccc(NS(=O)(=O)c4c(F)cccc4F)c3F)nc3ccccn23)n1 [compound 90]
52.7	> 1000	COc1ccn2c(-c3ccnc(N)n3)c(-c3cccc(NS(=O)(=O)c4c(F)cccc4F)c3F)nc2c1 [compound 91]
2.5	< 100	CN1CCN(c2ccc(Nc3nccc(-c4cn(C5CCCCC5)nc4-c4cccc(NS(=O)(=O)c5c(F)cccc5F)c4F)n3)cn2)CC1 [compound 108]
30.3	> 1000	Nc1nccc(-c2sc(N3CCCC3=O)nc2-c2cccc(NS(=O)(=O)c3c(F)cccc3F)c2F)n1 [compound 112]
2.8	< 100	CC(C)(C)c1nc(-c2cccc(NS(=O)(=O)c3c(F)cccc3F)c2F)c(-c2ccnc(Nc3ccc(N4CCOCC4)nc3)n2)s1 [compound 118]
7.4	100 to 1000	CCN(CC)c1nc(-c2cccc(NS(=O)(=O)c3c(F)cccc3F)c2F)c(-c2ccnc(NC)n2)s1 [compound 153]
12.5	100 to 1000	CNc1nccc(-c2sc(-c3cncc(F)c3)nc2-c2cc(C)cc(NS(=O)(=O)c3c(F)cccc3F)c2F)n1 [compound 154]

Source: US12427146B2, “C-terminal SRC kinase inhibitors” (INVENTISBIO CO., LTD., priority 2018, dated 2025)
